EC50 data for 4 compounds are collected here from patent US20240174727A1, “LONG-ACTING NATRIURETIC PEPTIDES AND USES THEREOF” (Eli Lilly and Company, priority 2022, published 2024).

Where two headings read alike, the source gives them in different places. Numbered stars: 1 amine (or outer) side, 2 acyl side, 3 side chain; on linkers, the order of the positions; unused ones are H or OH. Bridge positions count the residues as written; N and C are the ends. Square brackets hold non-standard residues; d marks the D form. * marks the point of attachment. C20 diacid = O=C(O)CCCCCCCCCCCCCCCCCCC(=O)*; γGlu = O=C(O)[C@H](CCC(=O)[*:2])N[*:1]; 4Pal = N[C@@H](Cc1ccncc1)C(=O)O; AEEA = NCCOCCOCC(=O)O; CH2 = C([*:1])[*:2]

The target in the experiment is T1, rat NPRA (Rattus norvegicus, UniProt P18910).
T1 construct: Full-Length cDNA Cloning and Generation of Cell Lines Overexpressing Natriuretic Peptide Receptors (NPRs); expressed in transfected cells; host or cells: Jump-in T-Rex HEK293 cells, pJTI R4 CMV-TO MCS pA vector, tetracycline induction
T1 sequence (P18910 29-1057): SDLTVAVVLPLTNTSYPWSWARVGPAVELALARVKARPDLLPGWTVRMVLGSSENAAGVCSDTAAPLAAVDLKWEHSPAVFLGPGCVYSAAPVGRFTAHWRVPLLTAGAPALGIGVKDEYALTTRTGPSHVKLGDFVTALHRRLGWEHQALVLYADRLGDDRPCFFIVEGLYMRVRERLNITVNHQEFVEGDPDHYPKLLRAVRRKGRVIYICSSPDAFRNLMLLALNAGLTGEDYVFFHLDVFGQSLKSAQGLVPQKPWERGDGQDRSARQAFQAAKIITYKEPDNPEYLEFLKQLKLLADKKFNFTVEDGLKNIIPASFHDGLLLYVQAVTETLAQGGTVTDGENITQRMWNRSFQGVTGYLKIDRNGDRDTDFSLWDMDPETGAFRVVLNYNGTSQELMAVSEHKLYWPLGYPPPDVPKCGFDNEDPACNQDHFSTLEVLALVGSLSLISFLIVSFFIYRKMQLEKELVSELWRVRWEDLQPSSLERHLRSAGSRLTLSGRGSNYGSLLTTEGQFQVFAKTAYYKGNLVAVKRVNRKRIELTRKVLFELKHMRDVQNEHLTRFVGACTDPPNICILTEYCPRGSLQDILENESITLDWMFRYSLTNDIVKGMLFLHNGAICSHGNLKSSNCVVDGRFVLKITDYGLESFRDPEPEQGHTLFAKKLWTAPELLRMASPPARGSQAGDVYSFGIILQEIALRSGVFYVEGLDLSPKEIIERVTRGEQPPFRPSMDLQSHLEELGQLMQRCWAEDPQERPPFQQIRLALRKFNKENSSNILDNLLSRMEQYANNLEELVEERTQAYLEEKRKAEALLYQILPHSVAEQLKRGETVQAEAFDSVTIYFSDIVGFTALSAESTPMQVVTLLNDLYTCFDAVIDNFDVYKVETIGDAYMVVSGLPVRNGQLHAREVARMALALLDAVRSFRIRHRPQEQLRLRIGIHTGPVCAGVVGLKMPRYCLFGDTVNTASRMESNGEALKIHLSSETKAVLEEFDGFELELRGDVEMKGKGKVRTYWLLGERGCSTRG
Briefly: Rat NPRA cGMP activity assay (HTRF) in HEK293 cells overexpressing NPRA. It is filed as cell-based. On the procedure: All sequences were verified by full-length sequencing performed by ACGT DNA Sequencing Services (Wheeling, IL). The target cDNA was cloned into pJTI R4 CMV-TO MCS pA vector and then co-transfected with pJT1R4 Int vector into Jump-in™ T-Rex™ HEK293 cells for mammalian inducible expression using Jump-in™ T-Rex™ HEK293 kit and Lipofectamine LTX and Plus Reagent following manufacturer's protocols, as briefly described below.
Jump-in™ T-Rex™ HEK293 cells were plated in a BioCOAT® poly-D-lysine coated 6-well plate (Becton Dickinson, cat no. 354413) at 1 million cells/well in 2 mL culture medium and incubated for 18 h at 37° C. and 5% CO2 to 50-70% confluence. A cDNA mix was made in a 50 mL tube by adding 1.5 μg target cDNA, 1.5 μg pJT1R4 Int vector, 3 μL Plus Reagent, and 300 μL Opti-MEM I sequentially into the tube. A reagent mix was made in a separate 50 mL tube by adding 7.5 μL Lipofectamine LTX into 300 μL Opti-MEM I. The mixtures were incubated for 5 min at room temperature. The cDNA mix was then transferred into the reagent mix, mixed well, and incubated for additional 30 min at room temperature. A 500 μL of cDNA/Lipofectamine complex was then transferred to the wells of the cell plate in which the culture medium was changed to 2 mL of transfection medium containing DMEM with 4.5 g/L D-glucose supplemented with 10% FBS-HI and 20 mM HEPES. Transfected cells were cultured for 48 h in an incubator at 37° C. and 5% CO2. A subclone or pool from each overexpressing cell line was maintained in culture medium with the addition of 2 mg/mL G418 sulfate for the clone selection based on its built-in resistance to G418 sulfate for at least 3 weeks with medium changed every 2-3 days.
NPRs were overexpressed in T-Rex™ HEK293 cells following the induction with 300 ng/mL tetracycline in culture medium for 48 h. Induced cell lines in an exponential growth phase were treated with 0.05% trypsin-EDTA for a few seconds at room temperature, harvested in cell medium containing FBS to neutralize the trypsin, counted, and cryopreserved at the density of 2 million cells/mL in cell preservation solution containing FBS-HI with 5% DMSO. Cryopreserved cells were stored at −80° C. for a few days prior to transferring to a liquid nitrogen tank. Induced cell lines were then used for suspension assays to measure the activity of polypeptides to stimulate cGMP production in cGMP assays or for the preparation of cell membranes to measure the binding activity of polypeptides in competitive radioligand binding assays, as described below.
Test polypeptides were added starting at 10 μM concentration and at 10-fold decreasing concentrations to obtain 8-point concentration-response curves (i.e., 10 μM to 1 pM). The quantity of cGMP generated was detected using HTRF® technology and normalized to maximum amount produced by 100 nM amidated rat ANP and the minimum amount produced by assay buffer. Detailed steps are outlined below.
Stock solutions of test polypeptides (2 mM) dissolved in DMSO were first diluted 100-fold in assay buffer containing HBSS with Ca^2+ and Mg^2+, 5 mM HEPES, 0.5 mM IBMX, and 0.1% BSA or 0.1% casein (pH 7.4). The polypeptides were further serially diluted in 1:10 dilution steps in assay buffer containing 0.1% BSA or 0.1% casein to generate 8-point 2× working stock solutions ranging from 20 μM to […].
A 10 μL cell suspension containing 4000 cells was plated in Costar® half-area white opaque 96-well plates (Corning, cat no. 3693). Then 10 μL of assay buffer (basal activity), 200 nM of amidated rat ANP (maximum activity) or 2× working stock solutions of test polypeptides were transferred into the plate. Final concentration of DMSO in each well was 0.5%. The plate was shaken for 15 sec and then incubated for 40 min at room temperature.
The cGMP generated was measured using cGMP kit following the manufacturer's directions, as described below.

The mark [1] stands for this setting: cGMP Assay (EC50, pM) w/BSA rNPRA, assay buffer with 0.1% BSA.
[2] abbreviates: cGMP Assay (EC50, pM) w/Casein rNPRA, assay buffer with 0.1% casein.

`CC[C@H](C)[C@@H]1NC(=O)[C@H](CCCNC(=N)N)NC(=O)[C@H](CC(=O)O)NC(=O)[C@H]([C@@H](C)CC)NC(=O)[C@H](CCCNC(=N)N)NC(=O)[C@H](CCCCN)NC(=O)CNC(=O)[C@H](Cc2ccccc2)NC(=O)[C@@H](NC(=O)[C@H](CO)NC(=O)[C@H](CO)NC(=O)[C@H](CCCNC(=N)N)NC(=O)[C@H](CCCNC(=N)N)NC(=O)[C@H](Cc2ccncc2)NC(=O)[C@H](CO)NC(=O)CCOCCOCCOCCOCCOCCOCCOCCOCCOCCOCCOCCOCCOCCOCCOCCOCCOCCOCCOCCOCCOCCOCCOCCOCCNC(=O)CNC(=O)[C@H](CCCCN)NC(=O)[C@H](CCC(=O)O)NC(=O)[C@H](CCCCN)NC(=O)[C@H](CCC(=O)O)NC(=O)[C@H](CCCCN)NC(=O)[C@H](CCC(=O)O)NC(=O)CC[C@H](NC(=O)CCCCCCCCCCCCCCCCCCC(=O)O)C(=O)O)CSCSC[C@@H](C(=O)N2CCC[C@H]2C(=O)N[C@@H](CO)C(=O)N[C@@H](Cc2ccccc2)C(=O)N[C@@H](CCCNC(=N)N)C(=O)N[C@@H](Cc2c[nH]cn2)C(=O)NCC(=O)N[C@@H](CO)C(=O)N2CCC[C@H]2C(=O)N[C@@H](CO)C(=O)N[C@@H](CO)C(=O)NCC(=O)N[C@@H](C)C(=O)N2CCC[C@H]2C(=O)N2CCC[C@H]2C(=O)N2CCC[C@H]2C(=O)N[C@@H](CO)C(N)=O)NC(=O)CNC(=O)[C@H](CC(C)C)NC(=O)CNC(=O)[C@H](CO)NC(=O)[C@H](Cc2ccc(O)cc2)NC(=O)[C@H](Cc2c[nH]cn2)NC(=O)CNC1=O` [Example 115] yielded an EC50 under setting [1] of 100000 pM.

Under setting [2], `CC[C@H](C)[C@@H]1NC(=O)[C@H](CCCNC(=N)N)NC(=O)[C@H](CC(=O)O)NC(=O)[C@H]([C@@H](C)CC)NC(=O)[C@H](CCCNC(=N)N)NC(=O)[C@H](CCCCN)NC(=O)CNC(=O)[C@H](Cc2ccccc2)NC(=O)[C@@H](NC(=O)[C@H](CO)NC(=O)[C@H](CO)NC(=O)[C@H](CCCNC(=N)N)NC(=O)[C@@H]2CCCN2C(=O)[C@H](CCCCN)NC(=O)[C@H](CCC(=O)O)NC(=O)COCCOCCNC(=O)COCCOCCNC(=O)COCCOCCNC(=O)COCCOCCNC(=O)COCCOCCNC(=O)COCCOCCNC(=O)CNC(=O)[C@H](CCCCN)NC(=O)[C@H](CCC(=O)O)NC(=O)[C@H](CCCCN)NC(=O)[C@H](CCC(=O)O)NC(=O)[C@H](CCCCN)NC(=O)[C@H](CCC(=O)O)NC(=O)CC[C@H](NC(=O)CCCCCCCCCCCCCCCCCCC(=O)O)C(=O)O)CSCSC[C@@H](C(=O)N2CCC[C@H]2C(=O)N[C@@H](CO)C(=O)N[C@@H](Cc2ccccc2)C(=O)N[C@@H](CCCNC(=N)N)C(=O)N[C@@H](Cc2c[nH]cn2)C(=O)NCC(=O)N[C@@H](CO)C(=O)N2CCC[C@H]2C(=O)N[C@@H](CO)C(=O)N[C@@H](CO)C(=O)NCC(=O)N[C@@H](C)C(=O)N2CCC[C@H]2C(=O)N2CCC[C@H]2C(=O)N2CCC[C@H]2C(=O)N[C@@H](CO)C(N)=O)NC(=O)CNC(=O)[C@H](CC(C)C)NC(=O)CNC(=O)[C@H](CO)NC(=O)[C@H](Cc2ccc(O)cc2)NC(=O)[C@H](Cc2c[nH]cn2)NC(=O)CNC1=O` [Example 122, HOOC-(CH2)18-CO-(γGlu)-EKEKEKG-(AEEA)6-EKPRSS[CFGKRIDRIGHYSGLGCJPSFRHGSPSSGAPPPS-NH2] gave an EC50 of 3770 pM.

Take `CC[C@H](C)[C@@H]1NC(=O)[C@H](CCCNC(=N)N)NC(=O)[C@H](CC(=O)O)NC(=O)[C@H]([C@@H](C)CC)NC(=O)[C@H](CCCNC(=N)N)NC(=O)[C@H](CCCCN)NC(=O)CNC(=O)[C@H](Cc2ccccc2)NC(=O)[C@@H](NC(=O)[C@H](CO)NC(=O)[C@H](CO)NC(=O)[C@H](CCCNC(=N)N)NC(=O)[C@H](CCCNC(=N)N)NC(=O)[C@H](Cc2ccncc2)NC(=O)[C@H](CO)NC(=O)COCCOCCNC(=O)COCCOCCNC(=O)COCCOCCNC(=O)COCCOCCNC(=O)COCCOCCNC(=O)COCCOCCNC(=O)COCCOCCNC(=O)COCCOCCNC(=O)CNC(=O)[C@H](CCCCN)NC(=O)[C@H](CCC(=O)O)NC(=O)[C@H](CCCCN)NC(=O)[C@H](CCC(=O)O)NC(=O)[C@H](CCCCN)NC(=O)[C@H](CCC(=O)O)NC(=O)CC[C@H](NC(=O)CCCCCCCCCCCCCCCCCCC(=O)O)C(=O)O)CSCSC[C@@H](C(=O)N2CCC[C@H]2C(=O)N[C@@H](CO)C(=O)N[C@@H](Cc2ccccc2)C(=O)N[C@@H](CCCNC(=N)N)C(=O)N[C@@H](Cc2c[nH]cn2)C(=O)NCC(=O)N[C@@H](CO)C(=O)N2CCC[C@H]2C(=O)N[C@@H](CO)C(=O)N[C@@H](CO)C(=O)NCC(=O)N[C@@H](C)C(=O)N2CCC[C@H]2C(=O)N2CCC[C@H]2C(=O)N2CCC[C@H]2C(=O)N[C@@H](CO)C(N)=O)NC(=O)CNC(=O)[C@H](CC(C)C)NC(=O)CNC(=O)[C@H](CO)NC(=O)[C@H](Cc2ccc(O)cc2)NC(=O)[C@H](Cc2c[nH]cn2)NC(=O)CNC1=O` [Example 107]: the EC50 is, setting by setting: under setting [1], 149000 pM; under setting [2], 3770 pM.

“{C20 diacid-γGlu}-EKEKEKG[AEEA][AEEA][AEEA][AEEA]S[4Pal]RRSSCFGGRIDRIGHQSGLGCPSFRHGGKSSGAPPPS-NH2 (linker 18-34 via CH2) [Example 83]”: the EC50 (assay buffer with 0.1% casein, read-out: cGMP Assay (EC50, pM) w/Casein rNPRA) stood at 16700 pM.
